Values quoted from earlier work in US20150125548A1, “COMBINATION NUTRITIONAL AND NUTRACEUTICAL PRODUCTS” (Requis Pharmaceuticals Inc., priority 2011, published 2015).

How the values were obtained:
[1] = target: tryptophan hydroxylase (Mus musculus, UniProt Q8CGV2); conditions: 10 mM magnesium chloride added together with 1 mM ATP; 100,000 g supernatant from mouse midbrain
[2] = after absorption

tryptophan hydroxylase, sequence (Q8CGV2 whole entry): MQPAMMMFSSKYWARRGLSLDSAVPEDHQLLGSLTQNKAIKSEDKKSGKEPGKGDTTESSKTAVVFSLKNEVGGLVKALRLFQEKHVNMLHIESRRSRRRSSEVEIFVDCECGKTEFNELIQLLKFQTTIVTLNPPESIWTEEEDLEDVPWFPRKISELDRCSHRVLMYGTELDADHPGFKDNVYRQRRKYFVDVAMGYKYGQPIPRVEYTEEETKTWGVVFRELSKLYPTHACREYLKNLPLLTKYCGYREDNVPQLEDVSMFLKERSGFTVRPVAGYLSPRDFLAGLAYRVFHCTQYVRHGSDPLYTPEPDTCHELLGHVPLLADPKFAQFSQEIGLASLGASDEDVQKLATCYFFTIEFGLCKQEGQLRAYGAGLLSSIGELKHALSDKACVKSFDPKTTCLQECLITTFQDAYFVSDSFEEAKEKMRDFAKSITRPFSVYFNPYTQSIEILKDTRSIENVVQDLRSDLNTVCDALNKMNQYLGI

SMILES	increase of enzyme activity above control [1]	fraction present in blood as the free amino acid (rest bound to plasma proteins) [2]
[Cl-].[Cl-].[Mg+2] [magnesium chloride]	50-70%	
N[C@@H](Cc1c[nH]c2ccccc12)C(=O)O [tryptophan, (2S)-2-amino-3-(1H-indol-3-yl)propanoic acid]		around 20%
